Experimental data published in patent US20200231638A1, “STABILIZED ANTI-MICROBIAL PEPTIDES” (priority 2015, published 2020).
Each block holds one molecule with its values, some of them ahead of it. Bridge positions count the residues as written; N and C are the ends. Square brackets hold non-standard residues; d marks the D form. Peptide text beside a SMILES is read from it. S5 = C=CCCC[C@](C)(N)C(=O)O; Nle = CCCC[C@H](N)C(=O)O

Key:
[1] = test system: B. cereus; format: cell-based, Bacillus cereus
Outline: (§1)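 Broth microdilution; anion-exchange-refined MHB; overnight culture at 37° C, diluted and regrown; inoculum 5×10^5 CFU/ml final; peptides serially diluted in water; 20-24 h, 37° C; MIC = lowest concentration without visible growth.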

[2] = test system: S. aureus; format: cell-based, Staphylococcus aureus
Outline: as §1

[3] = test system: human red blood cells; format: cell-based; conditions: red cells of human, 1 h, 25
Outline: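 Washed human RBCs as 1% (v/v) suspension in phosphate-buffered saline incubated 1 h at 37° C with serially diluted peptides. Hemoglobin release in supernatant measured spectrophotometrically (570 nm), % hemolysis relative to untreated and 1% Triton-X100 controls; MHC defined as concentration giving less than 1% release.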

[4] = test system: E. coli; format: cell-based, Escherichia coli
Outline: as §1

[5] = test system: P. aeruginosa; format: cell-based, Pseudomonas aeruginosa
Outline: as §1

Structure (SMILES): CCCC[C@H](NC(=O)[C@]1(C)CCCC=CCCC[C@](C)(NC(=O)[C@H](C)NC(=O)[C@H](CCCCN)NC(=O)CNC(=O)[C@H](Cc2ccccc2)NC(=O)[C@H](CCCCN)NC(=O)[C@H](CCC(=O)O)NC(=O)[C@H](C)NC(=O)[C@H](CO)NC(=O)[C@H](Cc2c[nH]cn2)NC(=O)[C@H](CC(C)C)NC(=O)[C@H](Cc2ccccc2)NC(=O)[C@H](CCCCN)NC(=O)CNC(=O)[C@@H](NC(=O)CN)[C@@H](C)CC)C(=O)N[C@@H](C(C)C)C(=O)NCC(=O)N[C@@H](CCC(=O)O)C(=O)N1)C(=O)N[C@@H](CC(N)=O)C(=O)N[C@@H](CO)C(N)=O [Mag(i + 4)15(K10E), GIGKFLHSAEKFGKAXVGEXBNS] (H-GIGKFLHSAEKFGKA[S5]VGE[S5][Nle]NS-NH2; staple 16-20)
MIC B. cereus [1]: >50 µg/mL
MIC S. aureus [2]: >50 µg/mL
% Hemolysis at 25 μg/ml [3]: 2.4%
MIC E. coli [4]: 6.2 µg/mL
MIC P. aeruginosa [5]: >50 µg/mL

Structure (SMILES): CCCC[C@H](NC(=O)[C@]1(C)CCCC=CCCC[C@](C)(NC(=O)[C@H](C)NC(=O)[C@H](CCCCN)NC(=O)CNC(=O)[C@H](Cc2ccccc2)NC(=O)[C@H](CCC(=O)O)NC(=O)[C@H](CCCCN)NC(=O)[C@H](C)NC(=O)[C@H](CO)NC(=O)[C@H](Cc2c[nH]cn2)NC(=O)[C@H](CC(C)C)NC(=O)[C@H](Cc2ccccc2)NC(=O)[C@H](CCCCN)NC(=O)CNC(=O)[C@@H](NC(=O)CN)[C@@H](C)CC)C(=O)N[C@@H](C(C)C)C(=O)NCC(=O)N[C@@H](CCC(=O)O)C(=O)N1)C(=O)N[C@@H](CC(N)=O)C(=O)N[C@@H](CO)C(N)=O [Mag(i + 4)15(K11E), GIGKFLHSAKEFGKAXVGEXBNS] (H-GIGKFLHSAKEFGKA[S5]VGE[S5][Nle]NS-NH2; staple 16-20)
MIC B. cereus [1]: 12.5 µg/mL
MIC S. aureus [2]: 50 µg/mL
% Hemolysis at 25 μg/ml [3]: 2.9%
MIC E. coli [4]: 6.2 µg/mL
MIC P. aeruginosa [5]: >50 µg/mL

Structure (SMILES): CCCC[C@H](NC(=O)[C@]1(C)CCCC=CCCC[C@](C)(NC(=O)[C@H](C)NC(=O)[C@H](CCCCN)NC(=O)CNC(=O)[C@H](Cc2ccccc2)NC(=O)[C@H](CCCCN)NC(=O)[C@H](CCCCN)NC(=O)[C@H](C)NC(=O)[C@H](CO)NC(=O)[C@H](Cc2c[nH]cn2)NC(=O)[C@H](CCC(=O)O)NC(=O)[C@H](Cc2ccccc2)NC(=O)[C@H](CCCCN)NC(=O)CNC(=O)[C@@H](NC(=O)CN)[C@@H](C)CC)C(=O)N[C@@H](C(C)C)C(=O)NCC(=O)N[C@@H](CCC(=O)O)C(=O)N1)C(=O)N[C@@H](CC(N)=O)C(=O)N[C@@H](CO)C(N)=O [Mag(i + 4)15(L6E), GIGKFEHSAKKFGKAXVGEXBNS] (H-GIGKFEHSAKKFGKA[S5]VGE[S5][Nle]NS-NH2; staple 16-20)
MIC B. cereus [1]: >50 µg/mL
MIC S. aureus [2]: >50 µg/mL
% Hemolysis at 25 μg/ml [3]: 1.1%
MIC E. coli [4]: 50 µg/mL
MIC P. aeruginosa [5]: >50 µg/mL

Structure (SMILES): CCCC[C@H](NC(=O)[C@]1(C)CCCC=CCCC[C@](C)(NC(=O)[C@H](C)NC(=O)[C@H](CCCCN)NC(=O)CNC(=O)[C@H](Cc2ccccc2)NC(=O)[C@H](CCCCN)NC(=O)[C@H](CCCCN)NC(=O)[C@H](C)NC(=O)[C@H](CO)NC(=O)[C@H](Cc2c[nH]cn2)NC(=O)[C@H](CCCCN)NC(=O)[C@H](Cc2ccccc2)NC(=O)[C@H](CCCCN)NC(=O)CNC(=O)[C@@H](NC(=O)CN)[C@@H](C)CC)C(=O)N[C@@H](C(C)C)C(=O)NCC(=O)N[C@@H](CCC(=O)O)C(=O)N1)C(=O)N[C@@H](CC(N)=O)C(=O)N[C@@H](CO)C(N)=O [Mag(i + 4)15(L6K), GIGKFKHSAKKFGKAXVGEXBNS] (H-GIGKFKHSAKKFGKA[S5]VGE[S5][Nle]NS-NH2; staple 16-20)
MIC B. cereus [1]: >50 µg/mL
MIC S. aureus [2]: >50 µg/mL
% Hemolysis at 25 μg/ml [3]: 1.9%
MIC E. coli [4]: 3.1 µg/mL
MIC P. aeruginosa [5]: 12.5 µg/mL

Structure (SMILES): CCCC[C@H](NC(=O)[C@]1(C)CCCC=CCCC[C@](C)(NC(=O)[C@H](C)NC(=O)[C@H](CCCCN)NC(=O)CNC(=O)[C@H](Cc2ccccc2)NC(=O)[C@H](CCCCN)NC(=O)[C@H](CCCCN)NC(=O)[C@H](C)NC(=O)[C@H](CO)NC(=O)[C@H](Cc2c[nH]cn2)NC(=O)[C@H](CC(C)C)NC(=O)[C@H](Cc2ccccc2)NC(=O)[C@H](CCCCN)NC(=O)CNC(=O)[C@@H](NC(=O)CN)[C@@H](C)CC)C(=O)N[C@@H](C(C)C)C(=O)NCC(=O)N[C@@H](CCC(=O)O)C(=O)N1)C(=O)N[C@@H](CCC(=O)O)C(=O)N[C@@H](CO)C(N)=O [Mag(i + 4)15(N22E), GIGKFLHSAKKFGKAXVGEXBES] (H-GIGKFLHSAKKFGKA[S5]VGE[S5][Nle]ES-NH2; staple 16-20)
MIC B. cereus [1]: 12.5 µg/mL
MIC S. aureus [2]: 25 µg/mL
% Hemolysis at 25 μg/ml [3]: 3.4%
MIC E. coli [4]: 3.1 µg/mL
MIC P. aeruginosa [5]: 12.5 µg/mL

Structure (SMILES): CCCC[C@H](NC(=O)[C@]1(C)CCCC=CCCC[C@](C)(NC(=O)[C@H](C)NC(=O)[C@H](CCCCN)NC(=O)CNC(=O)[C@H](Cc2ccccc2)NC(=O)[C@H](CCCCN)NC(=O)[C@H](CCCCN)NC(=O)[C@H](C)NC(=O)[C@H](Cc2c[nH]cn2)NC(=O)[C@H](Cc2c[nH]cn2)NC(=O)[C@H](CC(C)C)NC(=O)[C@H](Cc2ccccc2)NC(=O)[C@H](CCCCN)NC(=O)CNC(=O)[C@@H](NC(=O)CN)[C@@H](C)CC)C(=O)N[C@@H](C(C)C)C(=O)NCC(=O)N[C@@H](CCC(=O)O)C(=O)N1)C(=O)N[C@@H](CC(N)=O)C(=O)N[C@@H](CO)C(N)=O [Mag(i + 4)15(S8H), GIGKFLHHAKKFGKAXVGEXBNS] (H-GIGKFLHHAKKFGKA[S5]VGE[S5][Nle]NS-NH2; staple 16-20)
MIC B. cereus [1]: 3.1 µg/mL
MIC S. aureus [2]: 3.1 µg/mL
% Hemolysis at 25 μg/ml [3]: 8.7%
MIC E. coli [4]: 1.6 µg/mL
MIC P. aeruginosa [5]: 3.1 µg/mL

Structure (SMILES): CCCC[C@H](NC(=O)[C@]1(C)CCCC=CCCC[C@](C)(NC(=O)[C@H](C)NC(=O)[C@H](CCCCN)NC(=O)CNC(=O)[C@H](Cc2ccccc2)NC(=O)[C@H](CCCCN)NC(=O)[C@H](CCCCN)NC(=O)[C@H](C)NC(=O)[C@H](CO)NC(=O)[C@H](Cc2c[nH]cn2)NC(=O)[C@H](CC(C)C)NC(=O)[C@H](Cc2ccccc2)NC(=O)[C@H](CCCCN)NC(=O)CNC(=O)[C@@H](NC(=O)CN)[C@@H](C)CC)C(=O)N[C@@H](C(C)C)C(=O)NCC(=O)N[C@@H](CCC(=O)O)C(=O)N1)C(=O)N[C@@H](CC(N)=O)C(=O)N[C@@H](CCC(=O)O)C(N)=O [Mag(i + 4)15(S23E), GIGKFLHSAKKFGKAXVGEXBNE] (H-GIGKFLHSAKKFGKA[S5]VGE[S5][Nle]NE-NH2; staple 16-20)
MIC B. cereus [1]: 12.5 µg/mL
MIC S. aureus [2]: 25 µg/mL
% Hemolysis at 25 μg/ml [3]: 4.9%
MIC E. coli [4]: 3.1 µg/mL
MIC P. aeruginosa [5]: 12.5 µg/mL

More lines, main results first:

MIC B. cereus [1]: 3.1 µg/mL
MIC S. aureus [2]: 12.5 µg/mL
MIC E. coli [4]: 1.6 µg/mL
MIC P. aeruginosa [5]: 3.1 µg/mL
Structure (SMILES): CCCC[C@H](NC(=O)[C@]1(C)CCCC=CCCC[C@](C)(NC(=O)[C@H](C)NC(=O)[C@H](CCCCN)NC(=O)CNC(=O)[C@H](Cc2ccccc2)NC(=O)[C@H](CCCCN)NC(=O)[C@H](CCCCN)NC(=O)[C@H](C)NC(=O)[C@H](CO)NC(=O)[C@H](Cc2c[nH]cn2)NC(=O)[C@H](CC(C)C)NC(=O)[C@H](Cc2ccccc2)NC(=O)[C@H](CCCCN)NC(=O)CNC(=O)[C@@H](NC(=O)CN)[C@@H](C)CC)C(=O)N[C@@H](C(C)C)C(=O)NCC(=O)N[C@@H](CCC(=O)O)C(=O)N1)C(=O)N[C@@H](CCCCN)C(=O)N[C@@H](CO)C(N)=O [Mag(i + 4)15(N22K), GIGKFLHSAKKFGKAXVGEXBKS] (H-GIGKFLHSAKKFGKA[S5]VGE[S5][Nle]KS-NH2; staple 16-20)
% Hemolysis at 25 μg/ml [3]: 12.0%

MIC B. cereus [1]: 3.1 µg/mL
MIC S. aureus [2]: 6.2 µg/mL
MIC E. coli [4]: 1.6 µg/mL
MIC P. aeruginosa [5]: 6.2 µg/mL
Structure (SMILES): CCCC[C@H](NC(=O)[C@]1(C)CCCC=CCCC[C@](C)(NC(=O)[C@H](C)NC(=O)[C@H](CCCCN)NC(=O)CNC(=O)[C@H](Cc2ccccc2)NC(=O)[C@H](CCCCN)NC(=O)[C@H](CCCCN)NC(=O)[C@H](C)NC(=O)[C@H](CCCCN)NC(=O)[C@H](Cc2c[nH]cn2)NC(=O)[C@H](CC(C)C)NC(=O)[C@H](Cc2ccccc2)NC(=O)[C@H](CCCCN)NC(=O)CNC(=O)[C@@H](NC(=O)CN)[C@@H](C)CC)C(=O)N[C@@H](C(C)C)C(=O)NCC(=O)N[C@@H](CCC(=O)O)C(=O)N1)C(=O)N[C@@H](CC(N)=O)C(=O)N[C@@H](CO)C(N)=O [Mag(i + 4)15(S8K), GIGKFLHKAKKFGKAXVGEXBNS] (H-GIGKFLHKAKKFGKA[S5]VGE[S5][Nle]NS-NH2; staple 16-20)
% Hemolysis at 25 μg/ml [3]: 3.4%

MIC B. cereus [1]: 6.2 µg/mL
MIC S. aureus [2]: 50 µg/mL
MIC E. coli [4]: 1.6 µg/mL
MIC P. aeruginosa [5]: 3.1 µg/mL
Structure (SMILES): CCCC[C@H](NC(=O)[C@]1(C)CCCC=CCCC[C@](C)(NC(=O)[C@H](C)NC(=O)[C@H](CCCCN)NC(=O)CNC(=O)[C@H](Cc2ccccc2)NC(=O)[C@H](CCCCN)NC(=O)[C@H](CCCCN)NC(=O)[C@H](C)NC(=O)[C@H](CO)NC(=O)[C@H](Cc2c[nH]cn2)NC(=O)[C@H](CC(C)C)NC(=O)[C@H](Cc2ccccc2)NC(=O)[C@H](CCCCN)NC(=O)CNC(=O)[C@@H](NC(=O)CN)[C@@H](C)CC)C(=O)N[C@@H](C(C)C)C(=O)NCC(=O)N[C@@H](CCC(=O)O)C(=O)N1)C(=O)N[C@@H](CC(N)=O)C(=O)N[C@@H](CCCCN)C(N)=O [Mag(i + 4)15(S23K), GIGKFLHSAKKFGKAXVGEXBNK] (H-GIGKFLHSAKKFGKA[S5]VGE[S5][Nle]NK-NH2; staple 16-20)
% Hemolysis at 25 μg/ml [3]: 5.0%
